Data on 7 compounds can be found in patent publication US9931331B2 (priority 2013, dated 2018).

The viability is a per cent measure of how many cells are alive, often set against a control.

Data set [1] concerns cervical cancer cell (HeLa). In words: Cell viability (calcein-AM / ethidium homodimer-1), HeLa. Particulars: 24 h. As to the method: (§1) Strains of cervical cancer cell (HeLa), kidney cancer cell (Caki-1), brain tumor cell (T98G), breast cancer cell (MDA-MB 435S), and colon cancer cell (DLD-1), multiple myeloma cell (RPMI-8226), and a strain of normal breast epithelial cell (MCF-10A) were available from ATCC (American Type Culture Collection, USA). The strains of cervical cancer cell (HeLa), kidney cancer cell (Caki-1), brain tumor cell (T98G), breast cancer cell (MDA-MB 435S), and colon cancer cell (DLD-1) were cultured by using a DMEM medium including 10% fetal bovine serum (FBS), 2 mM of L-glutamin, 100 i.u./ml of penicillin, and […] of streptomycin for the culture and maintenance; multiple myeloma cell (RPMI-8226) was cultured by using a RPMI1640 medium including 10% FBS, 100 i.u./ml of penicillin, and […] of streptomycin; and the strain of normal breast epithelial cell (MCF-10A) was cultured by using a mammary epithelial growth medium (MEGM) including a bovine pituitary extract, insulin, human epidermal growth factor, hydrocortisone, and antibiotics, and the culture conditions included 37° C. and 5% CO2 in an incubator.
(§2) Then, the cells were stained by using 2 μM calcein-AM and 4 μM ethidium homodimer-1, and cell viability was measured by using a fluorescent microscope (Axiovert 200M, available from Carl Zeiss, Jena, Germany).

Data set [2] deals with kidney cancer cell (Caki-1). In words: Cell viability (calcein-AM / ethidium homodimer-1), Caki-1. The procedure:
as §1, §2

The test system of data set [3] is breast cancer cell (MDA-MB 435S). In words: Cell viability (calcein-AM / ethidium homodimer-1), MDA-MB 435S. Particulars: 24 h. As to the method: as §1, §2
The nature of another data set: in vitro. The note with it: human. The procedure:
as §1, §2

The test system of data set [4] is colon cancer cell (DLD-1). In words: Cell viability (calcein-AM / ethidium homodimer-1), DLD-1. The note with it: for cytotoxicity at 1 µM: read-out: cell viability decreased. As to the method: as §1, §2
The test system of the next data set is brain tumor cell (T98G). In words: Cell viability (calcein-AM / ethidium homodimer-1), T98G. Particulars: 24 h. The procedure:
as §1, §2

Data set [5] deals with multiple myeloma cell (RPMI-8226). In words: Cell viability (calcein-AM / ethidium homodimer-1), RPMI-8226. The note with it: for Cell viability: RPMI-8226, 24 h. As to the method: as §1, §2
The test system of data set [6] is normal breast epithelial cell (MCF-10A). In words: Cell viability (calcein-AM / ethidium homodimer-1), MCF-10A. The note with it: MCF-10A, 24 h. The procedure:
as §1, §2

[7] abbreviates: Homo sapiens, read-out: Cell viability.
Setting [8] is: Homo sapiens, CAKI-1, 24 h, read-out: Cell viability.
The mark [9] stands for this setting: Homo sapiens, CAKI-1, 24 h, read-out: cell viability decreased.
The mark [10] stands for this setting: Homo sapiens, MDA-MB-435S, read-out: Cell viability.
Setting [11] is: Homo sapiens, MDA-MB-435S, read-out: cell viability decreased.
The mark [12] stands for this setting: Homo sapiens, DLD-1, 24 h, read-out: Cell viability.
Where [13] appears, read: Homo sapiens, RPMI-8226, 24 h, read-out: Cell viability.
Where [14] appears, read: Homo sapiens, read-out: cell viability decreased.

SMILES strings stand for the structures. Read-outs that look alike come from different tables or passages of the source. Residues, ends and D or L forms follow the SMILES beside them. *: point of attachment. Cbz = O=C(OCc1ccccc1)*

For the compound `CC(C)C[C@H](NC(=O)CNC(=O)c1cc(Cl)ccc1Cl)B1OC(=O)C(CC(=O)O)(CC(=O)O)O1` [MLN9708], the viability at 0.1 µM is 100% in data set [1] (setting [7]); 83.3% in data set [2] (setting [8]); 97.5% in data set [3] (setting [10]); 98.2% in data set [4] (setting [12]); 84.7% in the data set with brain tumor cell (T98G) (setting [7]). Besides, the viability at 0.2 µM in data set [1] (setting [7]) is 97.8%; in data set [2] (setting [8]), 75.7%; in data set [3] (setting [10]), 93.3%; in data set [4] (setting [12]), 95.2%. In addition, the cytotoxicity at 0.2 µM in data set [2] (setting [9]) is ~25%; in data set [3] (setting [11]), ~10%. The compound further yielded a viability at 24 h, 50 nM in “in vitro” of 98%. For the same compound, in “in vitro”, the viability at 24 h, 100 nM worked out at 92.3%. Also, the viability at 0.05 µM in the data set with brain tumor cell (T98G) (setting [7]) was 92%. The viability at 0.02 µM in data set [5] (setting [13]) is 100%. The viability at 0.04 µM in data set [5] (setting [13]) is 80.8%.

`CC(C)C[C@H](NC(=O)[C@H](CCc1ccccc1)NC(=O)CN1CCOCC1)C(=O)N[C@@H](Cc1ccccc1)C(=O)N[C@@H](CC(C)C)C(=O)[C@@]1(C)CO1` [Carfilzomib]: in data set [1] (setting [7]), the viability at 0.05 µM was 90% and the viability at 0.1 µM was 89.8%. For the same compound, the cytotoxicity at 0.1 µM in data set [1] (setting [14]) is ~10%. Also, in data set [2] (setting [8]), the viability at 0.05 µM was 95.6% and the viability at 0.1 µM was 95.2%. Besides, in data set [3] (setting [10]), the viability at 0.025 µM was 87.1% and the viability at 0.05 µM was 84.4%. Besides, the cytotoxicity at 0.05 µM in data set [3] (setting [11]) is ~15%. In the data set “in vitro”, this compound came in with a viability at 24 h, 50 nM of 99.5% and a viability at 24 h, 100 nM of 98.1%. In addition, in data set [4] (setting [12]), the viability at 0.1 µM is 98.2% and the viability at 0.2 µM is 94.7%. Further, in the data set on brain tumor cell (T98G) (setting [7]), the viability at 0.02 µM is 100% and the viability at 0.04 µM is 93%. In addition, in data set [5] (setting [13]), the viability at 0.005 µM is 95.8% and the viability at 0.01 µM is 63.4%.

On to `CC(C)C[C@@H](C=O)NC(=O)[C@H](CC(C)C)NC(=O)[C@H](CC(C)C)NC(=O)OCc1ccccc1` [MG132] (Cbz-Leu-Leu-Leu-aldehyde), for which the viability at 0.5 µM in data set [1] (setting [7]) is 100%; in data set [2] (setting [8]) it was 100%; in data set [3] (setting [10]) it was 93%; in data set [4] (setting [12]), 91.7%. Besides, the viability at 1 µM was 100% in data set [1] (setting [7]), 89.3% in data set [2] (setting [8]) and 81.3% in data set [4] (setting [12]). For the same compound, the cell toxicity entry in data set [1] (MG132 alone up to 1 μM) is “did not exhibit cell toxicity”. Further, the cytotoxicity at 1 µM in data set [2] (setting [9]) is ~10%; in data set [4] (Homo sapiens, DLD-1, 24 h), ~19%. For the same compound, the viability at 0.25 µM is 100% in data set [3] (setting [10]) and 96.5% in the data set on brain tumor cell (T98G) (setting [7]). The cancer cell toxicity entry in data set [3] (MDA-MB 435S, MG132 alone up to 0.5 μM) is “did not exhibit significant cancer cell toxicity”; with brain tumor cell (T98G) (MG132 up to 0.25 μM), “did not exhibit significant cancer cell toxicity”. Also, the viability at 24 h, 0.25 μM in the data set “in vitro” is 95.2%. Besides, in “in vitro”, the viability at 24 h, 0.5 μM was determined as 92.9%. Moreover, in the data set with brain tumor cell (T98G) (setting [7]), the viability at 0.125 µM is 99.7%. The viability at 0.1 µM in data set [5] (setting [13]) is 100%. In addition, in data set [5] (setting [13]), the viability at 0.2 µM is 99.1%.

On to `COc1cc(/C=C/C(=O)CC(=O)/C=C/c2ccc(O)c(OC)c2)ccc1O` [Curcumin], for which the viability at 10 µM in data set [1] (setting [7]) is 100%; in data set [3] (setting [10]), 70.7%; in the data set on brain tumor cell (T98G) (setting [7]), 99.7%; in data set [5] (setting [13]), 93.6%. Moreover, the viability at 20 µM in data set [1] (setting [7]) is 91.3%; in data set [3] (setting [10]) it was 58.8%; in data set [4] (setting [12]), 96.7%; in the data set with brain tumor cell (T98G) (setting [7]), 96.5%; in data set [5] (setting [13]), 61.9%. In addition, the cytotoxicity at 20 µM in data set [1] (setting [14]) was ~9%; in data set [3] (setting [11]) it was ~41%. In data set [2] (setting [8]), the viability at 15 µM is 78.5%. For the same compound, the viability at 30 µM in data set [2] (setting [8]) is 68.2%; in data set [4] (setting [12]) it was 89%. The cytotoxicity at 30 µM in data set [2] (setting [9]) was ~32%. In “in vitro”, this compound registered a viability at 24 h, 10 μM of 97.7%. In “in vitro”, this compound came in with a viability at 24 h, 20 μM of 95.9%.

For the compound `CC1=C(O)C(=O)C=C2C1=CC=C1[C@@]2(C)CC[C@@]2(C)[C@@H]3C[C@](C)(C(=O)O)CC[C@]3(C)CC[C@]12C` [Celastrol], the viability at 0.5 µM in data set [1] (Homo sapiens, read-out: Cell viability, HeLa, celastrol 0.5 μM alone) is 100%; in data set [3] (setting [10]) it was 92.5%; in data set [4] (setting [12]) it was 90.5%. In addition, the viability at 1 µM is 88.4% in data set [1] (Homo sapiens, read-out: Cell viability, HeLa, celastrol 1 μM alone); 100% in data set [2] (setting [8]); 88.7% in data set [4] (setting [12]); 100% in the data set on brain tumor cell (T98G) (Homo sapiens, read-out: Cell viability, T98G, celastrol 1 μM alone). For the same compound, the cytotoxicity at 1 µM in data set [1] (setting [14]) was ~11%; in data set [4] (Homo sapiens, DLD-1, 24 h), ~11%. The viability at 2 µM is 69.6% in data set [2] (setting [8]) and 91.3% in the data set on brain tumor cell (T98G) (Homo sapiens, read-out: Cell viability, T98G, celastrol 2 μM alone). The cytotoxicity at 2 µM in data set [2] (setting [9]) is ~30%; in the data set with brain tumor cell (T98G) (setting [14]), ~9%. For the same compound, the viability at 0.25 µM in data set [3] (setting [10]) is 100%. Further, in data set [3] (Homo sapiens, MDA-MB-435S, read-out: cell viability decreased, MDA-MB 435S, celastrol alone 0.5 μM), the cytotoxicity at 0.5 µM is ~7%. Also, the viability at 24 h, 0.25 μM in the data set “in vitro” (Cell viability, MCF-10A, celastrol 0.25 μM alone, 24 h) is 98.9%. Also, the viability at 24 h, 0.5 μM in the data set “in vitro” (Cell viability, MCF-10A, celastrol 0.5 μM alone, 24 h) is 95.9%. For the same compound, the viability at 0.05 µM in data set [5] (setting [13]) is 90.7%. For the same compound, the viability at 0.1 µM in data set [5] (setting [13]) is 69%.

Take `CC[C@H](C)[C@H](NC(=O)[C@H]([C@@H](C)CC)N(C)C(C)=O)C(=O)N[C@H](C(=O)N[C@@H](CC(C)C)C(=O)[C@@]1(C)CO1)[C@@H](C)O` [Epoxomicin]: the Cell viability was 100 in data set [1] (epoxomicin 10 nM alone); 87.73 in data set [1] (epoxomicin 20 nM alone); 100 in data set [2] (Caki-1, epoxomicin 20 nM alone, 24 h); 97.62 in data set [6] (epoxomicin 10 nM alone); 94.36 in data set [6] (epoxomicin 20 nM alone); 99.70 in data set [4] (DLD-1, epoxomicin 20 nM alone, 24 h). The Cell viability in the data set on brain tumor cell (T98G) (epoxomicin 5 nM alone) is reported as 95.66; in the data set with brain tumor cell (T98G) (epoxomicin 10 nM alone), 79.79; in data set [5] (epoxomicin 2.5 nM alone), 100; in data set [5] (epoxomicin 5 nM alone), 92.72. Also, the cell viability decreased entry is reported as “about 12%” in data set [1] (epoxomicin alone 20 nM); “about 35%” in data set [2] (Caki-1, epoxomicin alone 40 nM, 24 h); “about 18%” in data set [3] (MDA-MB 435S, epoxomicin alone 15 nM). The cancer cell toxicity result in data set [2] (Caki-1, epoxomicin alone up to 20 nM, 24 h) was “did not induce cancer cell toxicity”.

Regarding `CC(C)C[C@H](NC(=O)[C@H](Cc1ccccc1)NC(=O)c1cnccn1)B(O)O` [Bortezomib, N-(2-pyrazine)carbonyl-L-phenylalanine-L-leucine boronic acid], in data set [1] (setting [7]), the viability at 0.02 µM was 100% and the viability at 0.04 µM is 90.8%. In data set [1] (setting [14]), the cytotoxicity at 0.04 µM was ~10%. Further, in data set [2] (setting [8]), the viability at 0.01 µM was 100% and the viability at 0.02 µM was 78%. Besides, the cytotoxicity at 0.02 µM in data set [2] (setting [9]) is ~22%. Also, in data set [3] (setting [10]), the viability at 0.0075 µM is 100% and the viability at 0.015 µM is 91%. Also, the cancer cell toxicity entry in data set [3] (MDA-MB 435S, bortezomib alone up to 15 nM) is “did not induce cancer cell toxicity”. In the data set “in vitro”, this compound registered a viability at 24 h, 15 nM of 98.8% and a viability at 24 h, 30 nM of 94.6%. Besides, in data set [4] (setting [12]), the viability at 0.04 µM was 99.7% and the viability at 0.06 µM is 95%. Besides, in the data set on brain tumor cell (T98G) (setting [7]), the viability at 0.005 µM is 99.7% and the viability at 0.01 µM is 89.7%. In data set [5] (setting [13]), the viability at 0.001 µM is 100% and the viability at 0.002 µM was 81.7%.
